In series [1] the test system is Cryptococcus neoformans. The series is described as follows: In vitro assay for antifungal activity (MIC80). The following applies: concentration at which 80% inhibition of fungus growth occurs, RPMI 1640, alamarBlue, duplicate; for MIC80: Cryptococcus neoformans. The series is classed as cell-based. How it is done:
(§1) Each fungal strain to be tested was inoculated onto Sabouraud dextrose agar, YM agar, and potato dextrose agar and cultured at 35° C. for two to three days. Single colonies of such of the yeast fungi were collected from the culture and suspended in 5 ml of 0.85% sterile saline, in an appropriate amount so that the absorbance at 530 nm became 0.108. The suspensions was diluted serially by 1:50 (RPMI 1640 media:sterile saline) and then further diluted by 1:20 (RPMI 1640 media:sterile saline) to prepare liquid inocula having a cell count ranging from 1.0×10^3 to 5.0×10^3 CFU/ml.
(§2) Antifungal samples were prepared by serially diluting each of the compounds of the present invention in RPMI 1640 media to concentrations range from 0.0156 to 32 μg/ml. As an excipient, DMSO was added to the antifungal sample to a final concentration of 1% (VAT). 0.1 ml of each of the serially diluted test solution was added to each well of 96 well plate, followed by adding 0.1 ml of each of the fungal inocula thereto.
(§3) At a given concentration of the test compound, the fungus growth was observed, after 24 hours, with the naked eye for all yeast species except for Cryptococcus neoformans, and the filamentous fungus growth was observed, after 48 hours. Also, using the growth indicator alamarBlue, MIC80, the concentration of the test compound at which 80% inhibition of the fungus growth occurs was determined based on the value observed for the negative control.

For series [2], the system named is Candida glabrata. The series can be described thus: In vitro assay for antifungal activity (MIC80). The settings on record: concentration at which 80% inhibition of fungus growth occurs, RPMI 1640, alamarBlue, 24 hours, duplicate; for MIC80: Nakaseomyces glabratus. The series is classed as cell-based. Here is the method: as §1, §2, §3
For series [3], the system named is Candida albicans. The series can be described thus: In vitro assay for antifungal activity (MIC80). The following applies: concentration at which 80% inhibition of fungus growth occurs, RPMI 1640, alamarBlue, 24 hours, duplicate; for MIC80: Candida albicans. The series is classed as cell-based. How it is done: as §1, §2, §3
The subject of series [4] is Candida krusei. The series is described as follows: In vitro assay for antifungal activity (MIC80). The format is cell-based. The following applies: concentration at which 80% inhibition of fungus growth occurs, RPMI 1640, alamarBlue, 24 hours, duplicate; for MIC80: Pichia kudriavzevii. Here is the method:
as §1, §2, §3
(Alamar Blue is a resazurin reagent that responds to reducing activity.)

Series [5] relates to Candida tropicallis. The series is described as follows: In vitro assay for antifungal activity (MIC80). The following applies: concentration at which 80% inhibition of fungus growth occurs, RPMI 1640, alamarBlue, 24 hours, duplicate; for MIC80: Candida. The format is cell-based. Here is the method: as §1, §2, §3
The test system of series [6] is Candida parapsilosis. The series can be described thus: In vitro assay for antifungal activity (MIC80). The series is classed as cell-based. The settings on record: concentration at which 80% inhibition of fungus growth occurs, RPMI 1640, alamarBlue, 24 hours, duplicate; for MIC80: Lodderomyces parapsilosis. Here is the method: as §1, §2, §3
Series [7] is described as follows: Assay for subacute toxicity in mice. The format is in vivo. Here is the method: Subacute cytotoxicity tests were conducted by administering Example compounds 41 and 45, each suspended in aqueous 0.5% methylcellulose to mice once a day for 2 weeks.
The subject of series [8] is Candida albicans. The series is described as follows: In vivo assay for antifungal activity (survival of infected mice). The settings on record: male mice, Candida albicans i.v.; 10 mg/kg orally once a day for seven days from 2 hours after infection; survival 28 days after infection. How it is done: 0.1 mL of a suspension containing 5×10^7 CFU/ml of Candida albicans was administered to each of 10 male mice by intravenous injection. 10 mg/kg of each of the test compounds to orally administer to the inoculated mouse 2 hours after the fungal infection. The test compound was administered once a day for seven days. The number of mice which survived the fungal infection for 28 days after the fungal infection was determined as % survival for each test group, and the results are given in Table 7: […]

[9] abbreviates: mice, suspended in aqueous 0.5% methylcellulose, once a day for 2 weeks.

In brackets after ≈: the same amount, converted by molar mass. Where only a bound is given, the exact number is not on record here.

A word on the MIC80: it is an inhibitory concentration at the 80% level, which refers to growth in some studies and to a panel of isolates in others.

Consider `C[C@@H](n1cc(N2CCN(c3ccc(Cl)cc3)C2=O)cn1)[C@](O)(Cn1cncn1)c1ccc(F)cc1F` [Example 1, 1-(4-Chlorophenyl)-3-(1-((2R,3R)-3-(2,4-difluorophenyl)-3-hydroxy-4-(1H-1,2,4-triazol-1-yl)butan-2-yl)-1H-pyrazol-4-yl)imidazolidin-2-one], for which the MIC80 in series [1] was 0.25 µg/mL (≈ 0.486 µM); in series [2], 8 µg/mL (≈ 15.6 µM); in series [3], ≤ 0.015 µg/mL; in series [4], 2 µg/mL (≈ 3.89 µM); in series [5] it was 1 µg/mL (≈ 1.95 µM); in series [6] it was 0.125 µg/mL (≈ 0.243 µM).

In the case of `C[C@@H](n1cc(-n2ccn(-c3ccc(Cl)cc3)c2=O)cn1)[C@](O)(Cn1cncn1)c1ccc(F)cc1F` [Example 23, 3-(4-Chlorophenyl)-1-(1-((2R,3R)-3-(2,4-difluorophenyl)-3-hydroxy-4-(1H-1,2,4-triazol-1-yl)butan-2-yl)-1H-pyrazol-4-yl)-1H-imidazole-2(3H)-one], the MIC80 in series [1] was 0.125 µg/mL (≈ 0.244 µM); in series [2], 4 µg/mL (≈ 7.81 µM); in series [3] it was ≤ 0.015 µg/mL; in series [4], 0.5 µg/mL (≈ 0.977 µM); in series [5] it was 0.125 µg/mL (≈ 0.244 µM); in series [6], ≤ 0.015 µg/mL.

In the case of `C[C@@H](n1cc(CCc2ccc(F)cc2)cn1)[C@](O)(Cn1cncn1)c1ccc(F)cc1F` [Example 38, (2R,3R)-2-(2,4-Difluorophenyl)-3-(4-(4-fluorophenethyl)-1H-pyrazol-1-yl)-1-(1H-1,2,4-triazol-1-yl)butan-2-ol], the MIC80 was 0.125 µg/mL (≈ 0.283 µM) in series [1]; 2 µg/mL (≈ 4.53 µM) in series [2]; ≤ 0.015 µg/mL in series [3]; 0.25 µg/mL (≈ 0.566 µM) in series [4]; ≤ 0.015 µg/mL in series [5]; ≤ 0.015 µg/mL in series [6].

As to `C[C@@H](n1cc(CCc2ccc(Cl)cc2)cn1)[C@](O)(Cn1cncn1)c1ccc(F)cc1F` [Example 39, (2R,3R)-3-(4-(4-Chlorophenethyl)-1H-pyrazol-1-yl)-2-(2,4-difluorophenyl)-1-(1H-1,2,4-triazol-1-yl)butan-2-ol], the MIC80 in series [1] is ≤ 0.015 µg/mL; in series [2], 1 µg/mL (≈ 2.18 µM); in series [3] it was ≤ 0.015 µg/mL; in series [4], 0.5 µg/mL (≈ 1.09 µM); in series [5], 0.062 µg/mL (≈ 0.135 µM); in series [6], ≤ 0.015 µg/mL.

As for `C[C@@H](n1cc(/C=C/c2ccc(F)cc2)cn1)[C@](O)(Cn1cncn1)c1ccc(F)cc1F` [Example 40, (2R,3R,E)-2-(2,4-Difluorophenyl)-3-(4-(4-fluorostyryl)-1H-pyrazol-1-yl)-1-(1H-1,2,4-triazol-1-yl)butan-2-ol], the MIC80 was 0.031 µg/mL (≈ 0.0705 µM) in series [1]; 2 µg/mL (≈ 4.55 µM) in series [2]; ≤ 0.015 µg/mL in series [3]; 0.25 µg/mL (≈ 0.569 µM) in series [4]; ≤ 0.015 µg/mL in series [5]; ≤ 0.015 µg/mL in series [6].

With `C[C@@H](n1cc(/C=C/c2ccc(Cl)cc2)cn1)[C@](O)(Cn1cncn1)c1ccc(F)cc1F` [Example 41, (2R,3R,E)-3-(4-(4-Chlorostyryl)-1H-pyrazol-1-yl)-2-(2,4-difluorophenyl)-1-(1H-1,2,4-triazol-1-yl)butan-2-ol], the “changes in the living states, organs, liver enzyme and liver weight” value in series [7] (setting [9]) is “no changes”. Besides, the toxic syndromes result in series [7] (setting [9]) is on record as “none of the mice were observed to suffer from toxic syndromes”. Moreover, the MIC80 in series [1] was ≤ 0.015 µg/mL; in series [2], 1 µg/mL (≈ 2.19 µM); in series [3] it was ≤ 0.015 µg/mL; in series [4], 0.5 µg/mL (≈ 1.1 µM); in series [5] it was 0.125 µg/mL (≈ 0.274 µM); in series [6], ≤ 0.015 µg/mL. Further, in series [8], the “% Survival” value stood at 100%.

As to `C[C@@H](n1cc(C#Cc2ccc(F)cc2)cn1)[C@](O)(Cn1cncn1)c1ccc(F)cc1F` [Example 45], in series [7] (mouse, in vivo), the toxic syndromes entry is reported as “none of the mice were observed to suffer from toxic syndromes”. Also, the “MIC80 Cryptococcus neoformans” value in series [1] was 0.062 µg/mL (≈ 0.142 µM). For the same molecule, the “MIC80 Candida glabrata” value in series [2] came to 2 µg/mL (≈ 4.57 µM). In addition, in series [3], the “MIC80 Candida albicans” value is on record as “≦0.015 μg/ml”. For the same molecule, the “MIC80 Candida krusei” value in series [4] worked out at 0.5 µg/mL (≈ 1.14 µM). For the same molecule, the “MIC80 Candida tropicallis” value in series [5] is reported as “≦0.015 μg/ml”. The “MIC80 Candida parapsilosis” value in series [6] is listed as “≦0.015 μg/ml”. Further, the “% Survival” value in series [8] is reported as 100%.

Turning to `C[C@@H](n1cc(/C=C/c2cnccn2)cn1)[C@](O)(Cn1cncn1)c1ccc(F)cc1F` [Example 53, (2R,3R,E)-2-(2,4-Difluorophenyl)-3-(4-(2-(pyrazin-2-yl)vinyl)-1H-pyrazol-1-yl)-1-(1H-1,2,4-triazol-1-yl)butan-2-ol], the MIC80 worked out at 1 µg/mL (≈ 2.36 µM) in series [1], 0.125 µg/mL (≈ 0.295 µM) in series [3], 4 µg/mL (≈ 9.45 µM) in series [4] and 0.125 µg/mL (≈ 0.295 µM) in series [6].

In the case of `OC(Cn1cncn1)(Cn1cncn1)c1ccc(F)cc1F` [Fluconazole, fluconazole, reference compound], the MIC80 in series [1] is 32 µg/mL (≈ 104 µM); in series [2], > 32 µg/mL; in series [3] it was 4 µg/mL (≈ 13.1 µM); in series [4] it was 4 µg/mL (≈ 13.1 µM); in series [5] it was > 32 µg/mL; in series [6], > 32 µg/mL. Also, the “% Survival” value in series [8] turned out to be 50%.

Source of the values: patent publication US8063229B2, “Antifungal triazole derivatives, method for the preparation thereof and pharmaceutical composition containing same” (Daewoong Pharmaceutical Co., Ltd., priority 2006, dated 2011).
